Measurements: patent US11684614B2, “Formulations of hydroxypyridonate actinide/lanthanide decorporation agents” (priority 2017, dated 2023)
Several values for one entry are separate records, joined by “and”; a condition that tells them apart may be missing. Identical values can stand only once.

Assay: Repeated-treatment efficacy for removing an intravenous dose of 238Pu (excretion, tissue retention, clinical observations), female and male arms;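 for % Recovered Dose ART: abdominal tissue remainder incl GI tract reproductive organs spleen bladder and fat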
Assay type: in vivo, Swiss-Webster mice
Details: listed as 3,4,3-LI(1,2-HOPO); for % Recovered Dose Kidney / % Recovered Dose Liver / % Recovered Dose SKEL / % Recovered Dose SOFT / % Recovered Dose Total Feces / % Recovered Dose ART / % Recovered Dose Combined Body / % Recovered Dose Combined Excreta / % Recovered Dose Total Urine / % Recovered Dose GI Tract / % Recovered Dose Soft Tissue / % Recovered Dose Total Bone: male animals
Procedure: The objective of this study was to characterize the efficacy of 3,4,3-L1(1,2-HOPO) at enhancing elimination from an internal plutonium burden in female and male Swiss-Webster mice administered a soluble citrate complex of ^238Pu and treated multiple times, starting at 24 hours after the exposure. Efficacy was evaluated by comparing the tissue contents, urinary and fecal excretions of ^238Pu in treated animals versus untreated animals.
The medical countermeasure 3,4,3-L1(1,2-HOPO) was administered parenterally (ip) or orally (po) via consecutive injections or gavages (six daily or twelve twice daily) starting at 24 hours post contamination at the following four selected doses: 30 μmol/kg ip, 150 μmol/kg po, 300 μmol/kg po, and 600 μmol/kg po (equivalent to respective approximate human doses range of […], using the accepted conversion system of mouse doses into human equivalent doses—HED—based on body surface area). Oral doses also included the permeability enhancer selected during formulation development work.
• Challenge isotope: ^238Pu • Challenge dose: 25 nCi (i.e., approximately 0.8 μCi/kg) • Route of contamination: Intravenous (iv) tail-vein • Route of treatment: Intraperitoneal Injection (ip) or Oral (po) • Frequency of treatment: Multiple (once- or twice-daily for 6 days) doses, starting 24 hr postcontamination • Treatment dose calculation: Dose calculations (mg/kg or μmol/kg) for the decorporation agent were based on the individual body weight measured after contamination. • Study Duration: 11 days, in-life
c. […] Test article and control dose formulations were prepared within 1 day of dose administration, by weighing out the appropriate amount of test article, dispersing in vehicle. For ip solutions, the test article was used alone, while for oral suspensions, a mixture of test article and excipient (90:10, w:w) was used. The pH was adjusted to 7.0-7.4 for ip administration and 5.0-5.5 for oral administration with sterile NaOH. Dose formulations were prepared at room temperature and filter-sterilized. • Storage: 2-8° C.; refrigerated; protected from light. • Characterization: The concentration of each test article formulation was verified by high-performance liquid chromatography-mass spectrometry. • Test Article Handling: Test, reference, and control article formulations were handled with the use of eye protection, gloves, and a protective laboratory coat. • Correct Dose Assurance: The test article was weighed with calibrated balances. The administration of each dose formulation was properly documented, and the amount administered to each animal recorded.
e. Experimental Procedures (In-Life Evaluations and Euthanasia) • Contamination: Single administration by intravenous (iv) tail-vein injection (0.2 mL injection volume) under isoflurane anesthesia. Three standard 0.2 mL injections were performed into polyethylene bottles and pre-loaded with aliquots of concentrated nitric acid on each injection day. Six female and six male mice were culled for necropsy 1 hr post-contamination and were used as standards. A11 standards were processed and counted together with the final samples to allow verification of the contamination dose. • Dose Administration: Single administration by intraperitoneal injection (ip) or oral gavage (po) under isoflurane anesthesia. • Mortality/Morbidity: Assessed at least once daily. • Clinical Observations: Recorded once daily (4 hr post-dose on day of treatment), or more often as clinical signs warranted. […]

[1] = Day-11 necropsy, animal group I
[2] = Day-11 necropsy, animal group L
[3] = Day-11 necropsy, animal group M
[4] = male arm table, Day 11 necropsy, animal group I
[5] = male arm table, Day 11 necropsy, animal group L
[6] = male arm table, Day 11 necropsy, animal group M

## O=C(NCCCN(CCCCN(CCCNC(=O)c1cccc(=O)n1O)C(=O)c1cccc(=O)n1O)C(=O)c1cccc(=O)n1O)c1cccc(=O)n1O [3,4,3-L1(1,2-HOPO)]
Day-7 necropsy, animal group C
  % Recovered Dose Kidney: 0.22% and 0.15% and 0.21% and 0.17%
  % Recovered Dose Liver: 15.72% and 12.80% and 16.24% and 16.85%
  % Recovered Dose SKEL: 24.75% and 21.49% and 23.68% and 17.13%
  % Recovered Dose SOFT: 2.28% and 2.12% and 3.24% and 2.82%
  % Recovered Dose Total Feces: 34.40% and 32.67% and 50.44% and 35.35%
Day-7 necropsy, animal group E
  % Recovered Dose ART: 1.02% and 1.34% and 1.21% and 1.33%
  % Recovered Dose Combined Body: 30.49% and 40.14% and 34.97% and 37.95%
  % Recovered Dose Combined Excreta: 69.51% and 59.86% and 65.03% and 62.05%
  % Recovered Dose Kidney: 0.14% and 0.21% and 0.13% and 0.20%
  % Recovered Dose Liver: 9.72% and 15.67% and 11.76% and 13.58%
  % Recovered Dose SKEL: 17.72% and 20.95% and 20.71% and 20.84%
  % Recovered Dose SOFT: 1.89% and 1.96% and 1.16% and 2.00%
  % Recovered Dose Total Feces: 40.90% and 40.04% and 39.60% and 39.91%
  % Recovered Dose Total Urine: 28.61% and 19.82% and 25.43% and 22.13%
Day-7 necropsy, animal group F
  % Recovered Dose ART: 1.03% and 1.92% and 2.25% and 1.33%
  % Recovered Dose Combined Body: 30.37% and 39.36% and 36.59% and 31.04%
  % Recovered Dose Combined Excreta: 69.63% and 60.64% and 63.41% and 68.96%
  % Recovered Dose Kidney: 0.17% and 0.21% and 0.42%
  % Recovered Dose Liver: 7.14% and 17.14% and 15.20% and 10.27%
  % Recovered Dose SKEL: 20.00% and 18.02% and 16.63% and 16.58%
  % Recovered Dose SOFT: 2.03% and 2.08% and 2.10% and 2.66%
  % Recovered Dose Total Feces: 42.75% and 36.05% and 44.44% and 38.86%
  % Recovered Dose Total Urine: 26.88% and 24.59% and 18.97% and 30.09%
[1]
  % Recovered Dose Combined Body: 15.90% and 20.53% and 19.46% and 22.16% and 16.51% and 22.02% and 21.03% and 23.25%
  % Recovered Dose Combined Excreta: 84.10% and 79.47% and 80.54% and 77.84% and 83.49% and 77.98% and 78.97% and 76.75%
  % Recovered Dose GI Tract: 0.43% and 0.47% and 0.44% and 0.49% and 0.64% and 0.58% and 0.71%
  % Recovered Dose Kidney: 0.08% and 0.11% and 0.10% and 0.14% and 0.13% and 0.16%
  % Recovered Dose Liver: 2.60% and 1.91% and 2.22% and 2.29% and 3.02% and 2.09% and 2.92% and 2.34%
  % Recovered Dose Soft Tissue: 1.04% and 0.98% and 0.83% and 1.42% and 1.37% and 1.22% and 1.20%
  % Recovered Dose Total Bone: 11.74% and 17.07% and 15.87% and 17.81% and 11.38% and 18.21% and 16.06% and 19.05%
  % Recovered Dose Total Feces: 54.04% and 60.47% and 51.78% and 38.48% and 49.18% and 43.78% and 44.59% and 43.58%
[2]
  % Recovered Dose Combined Body: 38.48% and 43.87% and 28.88% and 28.44% and 32.53% and 32.57% and 26.76% and 36.08%
  % Recovered Dose Combined Excreta: 61.52% and 56.13% and 71.12% and 71.56% and 64.47% and 67.43% and 73.24% and 63.92%
  % Recovered Dose GI Tract: 0.99% and 1.04% and 1.13% and 1.03% and 1.21% and 0.97% and 0.90% and 0.93%
  % Recovered Dose Kidney: 0.10% and 0.15% and 0.19% and 0.14%
  % Recovered Dose Soft Tissue: 2.91% and 2.09% and 2.06% and 2.29% and 2.57% and 2.02% and 1.97% and 1.69%
  % Recovered Dose Total Bone: 25.77% and 24.60% and 16.37% and 19.43% and 22.08% and 18.56% and 15.85% and 25.23%
  % Recovered Dose Total Feces: 41.70% and 35.40% and 43.87% and 46.74% and 38.04% and 37.30% and 46.07% and 33.53%
  % Recovered Dose Total Urine: 19.82% and 20.73% and 27.24% and 24.82% and 26.43% and 30.12% and 27.17% and 30.39%
[3]
  % Recovered Dose Combined Body: 20.04% and 21.39% and 28.64% and 34.45% and 33.00% and 30.60% and 25.58% and 27.62%
  % Recovered Dose Combined Excreta: 79.96% and 78.61% and 71.36% and 65.55% and 67.00% and 69.40% and 74.42% and 72.38%
  % Recovered Dose GI Tract: 0.61% and 0.50% and 0.89% and 0.48% and 0.99% and 1.00% and 0.73% and 0.76%
  % Recovered Dose Kidney: 0.08% and 0.17% and 0.28% and 0.16% and 0.25% and 0.24% and 0.20% and 0.13%
  % Recovered Dose Liver: 3.86% and 3.49% and 8.37% and 6.17% and 12.45% and 9.96% and 3.83% and 6.08%
  % Recovered Dose Soft Tissue: 1.50% and 1.55% and 1.52% and 2.24% and 2.53% and 2.16% and 2.01% and 1.95%
  % Recovered Dose Total Bone: 13.99% and 15.68% and 17.58% and 25.41% and 16.78% and 17.24% and 18.80% and 18.71%
  % Recovered Dose Total Feces: 53.86% and 46.68% and 46.45% and 35.88% and 40.81% and 59.45% and 36.72% and 39.43%
[4]
  % Recovered Dose Urine per Day, Day 2: 3.96% and 5.51% and 4.41% and 4.63% and 4.05% and 5.30% and 3.86% and 5.05%
  % Recovered Dose Urine per Day, Day 3: 1.65% and 1.23% and 3.48% and 2.00% and 1.41% and 1.46% and 1.93%
  % Recovered Dose Urine per Day, Day 4: 0.77% and 0.85% and 0.98% and 1.08% and 0.65% and 0.92% and 0.89% and 0.93%
  % Recovered Dose Urine per Day, Day 5: 0.94% and 0.87% and 0.59% and 0.63% and 0.79% and 0.76% and 0.28% and 1.05%
  % Recovered Dose Urine per Day, Day 6: 0.65% and 0.41% and 0.44% and 0.32% and 0.35% and 0.48% and 0.51% and 0.55%
  % Recovered Dose Urine per Day, Day 7: 0.87% and 1.16% and 0.64% and 0.59% and 0.75% and 0.99% and 1.27%
  % Recovered Dose Urine per Day, Day 8: 0.32% and 0.70% and 0.71% and 0.52% and 0.77% and 0.79% and 0.51%
  % Recovered Dose Urine per Day, Day 9: 0.20% and 0.51% and 0.73% and 0.48% and 0.39% and 0.60% and 0.63%
  % Recovered Dose Urine per Day, Day 10: 0.58% and 0.74% and 0.92% and 0.42% and 0.40% and 0.38% and 0.41%
  % Recovered Dose Urine per Day, Day 11: 0.39% and 0.44% and 0.55% and 0.31% and 0.43% and 0.00% and 0.71%
[5]
  % Recovered Dose Urine per Day, Day 1: 12.59% and 16.03% and 21.48% and 17.40% and 21.11% and 22.45% and 21.35% and 20.51%
  % Recovered Dose Urine per Day, Day 2: 2.90% and 1.60% and 1.70% and 2.41% and 1.15% and 2.95% and 2.14% and 3.00%
  % Recovered Dose Urine per Day, Day 3: 1.04% and 0.84% and 1.21% and 0.62% and 1.08% and 1.06% and 0.54% and 1.49%
  % Recovered Dose Urine per Day, Day 4: 0.50% and 0.38% and 0.59% and 0.77% and 0.45% and 0.81% and 0.67% and 1.28%
  % Recovered Dose Urine per Day, Day 5: 0.64% and 0.28% and 0.60% and 0.52% and 0.67% and 0.50% and 0.69%
  % Recovered Dose Urine per Day, Day 6: 0.60% and 0.06% and 0.37% and 0.49% and 0.33% and 0.48% and 0.43%
  % Recovered Dose Urine per Day, Day 7: 0.61% and 0.22% and 0.72% and 1.23% and 0.46% and 0.44% and 0.51% and 0.75%
  % Recovered Dose Urine per Day, Day 8: 0.30% and 0.16% and 0.05% and 0.55% and 0.60% and 0.62%
  % Recovered Dose Urine per Day, Day 9: 0.21% and 0.30% and 0.20% and 0.22% and 0.55% and 0.27% and 0.25% and 0.67%
  % Recovered Dose Urine per Day, Day 10: 0.24% and 0.45% and 0.12% and 0.20% and 0.21% and 0.30% and 0.34% and 0.63%
  % Recovered Dose Urine per Day, Day 11: 0.20% and 0.41% and 0.40% and 0.14% and 0.18% and 0.34% and 0.31%
[6]
  % Recovered Dose Urine per Day, Day 2: 2.27% and 2.99% and 2.82% and 2.73% and 2.07% and 4.97% and 3.05%
  % Recovered Dose Urine per Day, Day 3: 0.81% and 1.49% and 1.40% and 1.64% and 1.14% and 1.43% and 1.07% and 1.00%
  % Recovered Dose Urine per Day, Day 4: 0.47% and 0.64% and 0.77% and 0.68% and 0.62% and 0.31% and 0.58% and 0.72%
